Experimental findings from patent US20240207421A1, “NERVE TARGETING PEPTIDES AND METHODS OF USE” (ALUME BIOSCIENCES, INC., priority 2020, published 2024) are described below.

Test [1] deals with Human MPZ (human) (UniProt P25189). Put plainly: phage display, NGS count.
The target is the same in test [2]. In words: phage display R3, NGS count.
For test [3], the system named is Human Myelin PLP. In words: Phage display library screening (Example 1, Power BI analysis), binding to Human Myelin PLP. Particulars: R3 Myelin PLP, NextGen sequencing count of phage sequences distinct for this target. An excerpt:
(§1) Phage display library screens were used to identify peptides that bind to target proteins that are expressed in human nerves and could therefore be useful for systemic in-vivo labeling of nerves during fluorescence assisted surgery. Specifically, m13 phage libraries expressing 7 or 12 random amino acid peptides, or a cyclic peptide CX7C, on the N-terminus of the minor coat protein pIII (New England Biolabs) were processed through multiple rounds of selection for binding to target proteins expressed in peripheral nerve (Table 1).
(§2) The library was processed through up to 4 binding and wash cycles. For selection, phage libraries were incubated for up to 24 hours at 4° C. in 96 well plates that had been coated with one of the target proteins. Plates were then washed with PBS and phage were eluted using 0.2M glycine pH 2.0. Phage supernatants where then neutralized with Tris pH 9.0 prior to plating on TG1 bacteria and LB agar plates. Colonies were counted to determine titer followed by DNA preparation of pools of phage and NextGen sequencing. After rounds of selection, phage were pooled and amplified for iterative selection. Phage that were bound at each round were sequenced. NextGen sequencing of pools after 2, 3 and 4 rounds of selection was used to isolate candidate sequences that were analyzed further to identify those that specifically bound each unique target protein.
(§3) DNA sequences were trimmed of all vector amino acids and imported as a peptide dataset into Power BI. Power BI was used to identify phage display sequences for specific columns (corresponding to each target protein) in order to identify sequences that were distinct for each protein target. The Power BI code evaluated each individual sequence for each protein target against the sequences present in other protein targets in a test for uniqueness. Using the distinct flag, the Power BI code generated a filtered peptide dataset that excluded any peptide sequence that occur in more than one column which identified a specific protein target. This method therefore identified candidate peptide sequences showing selective binding to an individual target protein. Unique sequences in each column were sorted by individual counts such that the most selected sequences appeared at the top of the column.

In test [4] the test system is Human Myelin PLP. Put plainly: Phage display library screening (Example 2, Python script analysis), binding to Human Myelin PLP. Particulars: combined unique sequence count, Python/R script analysis. As to the method:
Phage display library screens were used to identify peptides that bind to target proteins (including specific laminin trimers) that are expressed in human nerves, as described in Table 3. These screens were also carried out to identify peptides that could bind selectively to nerves versus muscle. Such peptides could therefore be useful for systemic in-vivo labeling of nerves during fluorescence assisted surgery. Specifically, m 13 phage libraries expressing 7 or 12 random amino acid peptides, or a cyclic peptide CX7C, on the N-terminus of the minor coat protein pIII (New England Biolabs; NEB) were processed through multiple rounds of selection for binding to target proteins expressed in nerves, or to excised human nerves, nerve extracts, or muscle, as described further below.
as §2, with “For screening against the specified target proteins in Table 1, including LN211, LN411, LN421, and LN521, the phage” for “The”, “by” for “through”, “TGI” for “TG1”
Python Script Analysis: For all NEB sequence datasets, a python script was used to translate, trim, and filter the peptide sequences. The script translated the nucleotide sequences, translating amber codons as glutamine in peptide sequences, and then trimmed the end sequences that come from the vector. Secondly, the script combined the unique counts of trimmed peptides with identical sequences. […] Another python script was used to group peptides from different assays according to protein target (Myelin Protein Zero, Myelin Proteolipid Protein, Myelin Basic Protein, and Nidogen-2) and also combine the unique sequence counts for each peptide. An R script was written to merge the peptide sequences from different data files and determine peptides specific for each protein target but absent from different protein binding datasets. Peptide sequences were ranked by unique sequence count.

For test [5], the target named is T1, Human Myelin Basic Protein (Homo sapiens, UniProt P02686). Put plainly: Phage display library screening (Example 1, Power BI analysis), binding to Human Myelin Basic Protein. More on the design: Enzo 200-606-M001 from human; purchased Enzo 200-606-M001; host or cells: human brain (tissue-derived). Particulars: R3 Myelin Basic Protein, NextGen sequencing count of phage sequences distinct for this target.
Text: as §1, §2, §3

Test [6] deals with T1, Human Myelin Basic Protein. In words: Phage display library screening (Example 2, Python script analysis), binding to Human Myelin Basic Protein. More on the design: Enzo 200-606-M001 from human; purchased Enzo 200-606-M001; host or cells: human brain (tissue-derived). Particulars: R3 Myelin Basic Protein; combined unique sequence count, Python/R script analysis. The procedure, abridged: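 Target protein-coated wells were panned with M13 phage libraries displaying 7- or 12-mer random or cyclic CX7C peptides on pIII, over up to 4 rounds (up to 24 h, 4° C), with glycine pH 2.0 elution. Pools from rounds 2–4 were NextGen-sequenced. Peptides specific to each target were ranked by unique sequence count.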

T1 sequence (P02686 134-304): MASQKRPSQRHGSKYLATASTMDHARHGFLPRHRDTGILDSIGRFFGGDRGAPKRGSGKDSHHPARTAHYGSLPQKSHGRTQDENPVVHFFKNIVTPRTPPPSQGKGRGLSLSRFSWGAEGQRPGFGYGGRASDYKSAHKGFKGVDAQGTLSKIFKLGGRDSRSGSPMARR
Sequence of Human MPZ (human) (P25189 30-153 limits assumed): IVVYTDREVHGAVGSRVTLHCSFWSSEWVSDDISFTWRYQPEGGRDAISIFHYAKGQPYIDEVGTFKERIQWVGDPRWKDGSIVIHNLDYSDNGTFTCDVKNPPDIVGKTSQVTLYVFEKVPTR

Consider ALPLSAS (peptide), for which the Count stood at 197 with Human MPZ (human) [1] and 196 with Human MPZ (human) [2].

On to ATLKPYR (R3 Myelin PLP-binding peptide), for which the Count with Human Myelin PLP [3] and in the test on Human Myelin PLP [4] was 68 each time.

For the substance DPITRLK (peptide), the Count with Human MPZ (human) [1] was 93; in the test with Human MPZ (human) [2], 92.

On to DRNSVFW (peptide), for which the Count in the test with Human MPZ (human) [1] and with Human MPZ (human) [2] was 50 throughout.

Regarding DTSRTME (R3 Myelin PLP-binding peptide), the Count in the test on Human Myelin PLP [3] and with Human Myelin PLP [4] was 33 in each case.

With EKPSWTR (R3 Myelin PLP-binding peptide), the Count in the test with Human Myelin PLP [3] and in the test with Human Myelin PLP [4] was 33 in each case.

Turning to ETTRNYG (peptide), the Count was 69 with Human MPZ (human) [1] and 68 with Human MPZ (human) [2].

Consider FKMPIPT (R3 Myelin PLP-binding peptide), for which the Count in the test with Human Myelin PLP [3] and in the test with Human Myelin PLP [4] was 34 each time.

In the case of FPVVTRN (R3 Myelin PLP-binding peptide), the Count in the test on Human Myelin PLP [3] turned out to be 42.

Take GLIRHYT (R3 Myelin PLP-binding peptide): the Count in the test with Human Myelin PLP [3] and with Human Myelin PLP [4] was 66 throughout.

GLTPKLF (peptide): the Count in the test with Human MPZ (human) [2] was 48.

In the case of GPFLFTV (R3 Myelin PLP-binding peptide), in the test with Human Myelin PLP [3], the Count is 47.

Take GPLRMAT (peptide): the Count with Human MPZ (human) [1] was 51; with Human MPZ (human) [2] it was 50.

For the substance HQGSRTY (R3 Myelin PLP-binding peptide), the Count in the test with Human Myelin PLP [3] and in the test with Human Myelin PLP [4] was 53 each time.

Take “HRLPWHH (R3 Myelin Basic Protein-binding peptide)”: the Count in test [5] and in test [6] was 10 in each case.

On to LALYARM (R3 Myelin PLP-binding peptide), for which the Count with Human Myelin PLP [3] and in the test with Human Myelin PLP [4] was 44 throughout.

In the case of “LPMRILT (R3 Myelin Basic Protein-binding peptide)”, the Count in test [5] and in test [6] was 16 throughout.

Turning to LRFQIPP (R3 Myelin PLP-binding peptide), the Count in the test with Human Myelin PLP [3] and in the test on Human Myelin PLP [4] was 44 throughout.

As to LTHHFAP (R3 Myelin PLP-binding peptide), the Count with Human Myelin PLP [3] and with Human Myelin PLP [4] was 40 each time.

With MTPHTSC (R3 Myelin PLP-binding peptide), in the test on Human Myelin PLP [3], the Count is given as 62.

Take NPNWRTI (R3 Myelin PLP-binding peptide): the Count in the test with Human Myelin PLP [3] and in the test on Human Myelin PLP [4] was 34 throughout.

As for NPSHHPR (R3 Myelin PLP-binding peptide), the Count with Human Myelin PLP [3] and in the test on Human Myelin PLP [4] was 37 each time.

For “QNTGLKW (R3 Myelin Basic Protein-binding peptide)”, the Count in test [5] and in test [6] was 11 each time.

RFELPAP (R3 Myelin PLP-binding peptide): the Count in the test with Human Myelin PLP [3] and with Human Myelin PLP [4] was 52 throughout.

Take RHNVEFS (R3 Myelin PLP-binding peptide): the Count in the test on Human Myelin PLP [3] and in the test with Human Myelin PLP [4] was 42 in each case.

RVPHSRT (peptide) yielded a Count with Human MPZ (human) [2] of 49.

Substance SHLASRP (peptide) showed a Count in the test with Human MPZ (human) [2] of 97.

On to SMWSQFR (R3 Myelin PLP-binding peptide), for which the Count in the test with Human Myelin PLP [3] and with Human Myelin PLP [4] was 34 each time.

On to “SPDRTSL (R3 Myelin Basic Protein-binding peptide)”, for which the Count in test [5] and in test [6] was 12 each time.

In the case of TNPWKPH (R3 Myelin PLP-binding peptide), the Count in the test on Human Myelin PLP [3] and in the test on Human Myelin PLP [4] was 62 throughout.

Consider “WTMKPNY (R3 Myelin Basic Protein-binding peptide)”, for which the Count in test [5] is 13; in test [6] it was 14.

For YPKLWTY (R3 Myelin PLP-binding peptide), the Count in the test with Human Myelin PLP [3] and with Human Myelin PLP [4] was 35 in each case.

Consider YTPMGTG (R3 Myelin PLP-binding peptide), for which the Count in the test on Human Myelin PLP [3] and with Human Myelin PLP [4] was 50 in each case.
